Reference: publication PMC4775916 (Antimicrobial Agents and Chemotherapy, 2016)
“And” between values parts separate entries of the source, which are not always exact repeats. Identical values can stand only once. Like-named read-outs stand apart in the source and are kept apart here.

What was measured:
[1] = test system: VIM-5; set-up: method as in Garcar et al. (6); details: previous studies ref Garcar et al. (6), cited from earlier work
[2] = target: T1, VIM-1 (Pseudomonas aeruginosa, UniProt A0A0F7KYQ8); test: Steady-state kinetics of β-lactam substrate hydrolysis; assay type: biochemical
T1 construct: The N- and C- terminal residues of the mature enzymes are labelled 26; made in house
Procedure: (§1) The hydrolysis of a representative panel of β-lactam substrates was monitored at their respective absorbance wavelengths. The wavelengths and extinction coefficients used were previously described ([34]). The assays were carried out using 50 mM HEPES buffer (pH 7.2) supplemented with 1 μg/ml bovine serum albumin (BSA), 1 μM ZnSO4, and 0.01% Triton X-100. In the case of VIM-1, C-terminally His6-tagged VIM-1 was used for kinetic analyses. Note that no differences were observed between the activities of untagged VIM-1 and C-terminally His6-tagged VIM-1 for the selected antibiotics (data not shown). The initial rates were obtained from the changes in absorbance at various substrate concentrations. Steady-state kinetic parameters (Km and kcat) were determined by fitting the initial velocity data to the Michaelis-Menten equation using GraphPad Prism 5.01 software (see Table S4 in the supplemental material).

[3] = target: T2, VIM-38 (Pseudomonas aeruginosa, UniProt A0A0F7KYQ8, A128K/A265V/E202A/H201L/K257T/S205R); test: as above; assay type: biochemical; details: 50 mM HEPES pH 7.2, apparent for ampicillin and ceftazidime; for Km: read-out: Mean Km ± SD VIM-38
T2 construct: The N- and C- terminal residues of the mature enzymes are labelled 26; His6 with HRV3C cleavage site (pET-28a) (N, cleaved yes); made in house; host or cells: E. coli BL21(DE3)
Procedure: as §1

[4] = target: T3, VIM-5 (Pseudomonas aeruginosa, UniProt A0A0F7KYQ8, A128K/E202A/H201L/K257T/S205R); test: as above; assay type: biochemical; details: for kcat VIM-5 / Km: 50 mM HEPES pH 7.2, apparent for ampicillin and ceftazidime; for Km: read-out: Mean Km ± SD VIM-5
T3 construct: His6 with HRV3C cleavage site (pET-28a) (N, cleaved yes); made in house; host or cells: E. coli BL21(DE3)
Procedure: as §1

[5] = target: T1, VIM-1; details: previous studies ref Franceschini et al. (4), cited from earlier work; for Km: read-out: Km VIM-1 (previous study)
[6] = target: T4, VIM-2 (Escherichia coli, UniProt Q5U7L7); assay type: biochemical
T4 construct: His6 (N, cleaved yes); made in house
Procedure: as §1

[7] = test system: VIM-2; set-up: method as in Poirel et al. (5); details: previous studies ref Poirel et al. (5), cited from earlier work
[8] = C-terminally His6-tagged VIM-1; 50 mM HEPES pH 7.2; apparent for ampicillin and ceftazidime
[9] = 50 mM HEPES pH 7.2; apparent for ampicillin and ceftazidime

SMILES	kcat VIM-5 (previous study) [1] [s⁻¹]	kcat VIM-1 [2, 8]	Km ([2]; C-terminally His6-tagged VIM-1; 50 mM HEPES pH 7.2; apparent for ampicillin and ceftazidime; read-out: Mean Km ± SD VIM-1) [µM]	Km ([2]; read-out: Mean Km ± SD VIM-1; C-terminally His6-tagged VIM-1; 50 mM HEPES pH 7.2; apparent for ampicillin and ceftazidime) [µM]	kcat VIM-38 [3] [s⁻¹]	Km [3] [µM]	Km ([3]; listed as ampicillin) [µM]	kcat VIM-5 [4] [s⁻¹]	Km [4] [µM]	Km ([4]; listed as ampicillin) [µM]	kcat VIM-1 (previous study) [5] [s⁻¹]	Km [5] [µM]	kcat VIM-2 [6, 9] [s⁻¹]	Km ([6]; 50 mM HEPES pH 7.2; apparent for ampicillin and ceftazidime; read-out: Mean Km ± SD VIM-2) [µM]	Km ([6]; read-out: Mean Km ± SD VIM-2; 50 mM HEPES pH 7.2; apparent for ampicillin and ceftazidime) [µM]	Km ([1]; read-out: Km VIM-5 (previous study)) [µM]	fold-higher hydrolysis efficiency by VIM-5 than previously reported ([4]; this study versus previously reported ([26])) [fold]	kcat VIM-2 (previous study) [7] [s⁻¹]	Km ([7]; read-out: Km VIM-2 (previous study)) [µM]
CC1(C)S[C@@H]2[C@H](NC(=O)[C@H](N)c3ccccc3)C(=O)N2[C@H]1C(=O)O [Ampicillin]	14	122 s⁻¹ and 120 s⁻¹	> 1000	> 300	170	380 ± 80	> 300	230	> 1000	> 300	37	917	180	> 500	> 300				
CC(C)(O/N=C(\C(=O)N[C@@H]1C(=O)N2C(C(=O)[O-])=C(C[n+]3ccccc3)CS[C@H]12)c1csc(N)n1)C(=O)O [Ceftazidime]	0.2	3 s⁻¹			4	430 ± 140		4	340 ± 80		60	794	2			149	10	89	98
CC(=O)OCC1=C(C(=O)O)N2C(=O)[C@@H](NC(=O)Cc3cccs3)[C@H]2SC1 [Cephalothin]					120	60 ± 8		200	100 ± 8										
